Tests used:
Conditions in all cases: 72 h
[1] = test system: myeloid leukemia patient primary cells Pat.6; experiment: cell viability (% survival relative to DMSO control); higher = less cytotoxic
Method in brief: (§1)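 Mononuclear cells from patients with AML or CML were thawed, purified on Ficoll and placed in RPMI 1640 with 10% FBS at 10,000 cells/well on 384-well plates. The plates came pre-printed with 70 compounds at five tenfold concentrations spanning 1–10,000 nM, in duplicate, and cells were exposed for 72 h. CellTiter-Glo gave viability, scaled between DMSO wells and wells with 10 μM proteasome inhibitor. Where reported, area under the curve was obtained from log-logistic fits with four parameters using the drc and PharmacoGx R packages.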

[2] = test system: myeloid leukemia patient primary cells Pat.9; experiment: as above
Method in brief: as §1

[3] = test system: myeloid leukemia patient primary cells Pat.4; experiment: as above
Method in brief: as §1

HL-60 = experiment: area under dose-response curve (viability, 1 nM-10 uM) (fraction (0-1)); higher = more sensitive
Method in brief: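 Area under the curve, where listed, was derived from four-parameter log-logistic fits with drc and PharmacoGx. These fits used CellTiter-Glo viability from HL-60 cells in RPMI 1640 with 10% FBS, normalised to DMSO wells and wells holding 10 μM proteasome inhibitor. The full library was rescreened on 384-well plates in duplicate at five tenfold concentrations, 1–10,000 nM, with DMSO or 100 nM of one of three metabolic inhibitors, for 72 h at 37 °C, 5% CO2.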

[4] = co-treatment: GSK2194069 100 nM
[5] = co-treatment: pictilisib 100 nM

Row | Compound | cell viability ([1]; 1 nM) [%] | cell viability ([1]; 10 nM) [%] | cell viability ([1]; 100 nM) [%] | cell viability ([1]; 1000 nM) [%] | cell viability ([1]; 10000 nM) [%] | cell viability ([2]; 1 nM) [%] | cell viability ([2]; 10 nM) [%] | cell viability ([2]; 100 nM) [%] | cell viability ([2]; 1000 nM) [%] | cell viability ([2]; 10000 nM) [%] | cell viability ([3]; 1 nM) [%] | cell viability ([3]; 10 nM) [%] | cell viability ([3]; 100 nM) [%] | cell viability ([3]; 1000 nM) [%] | cell viability ([3]; 10000 nM) [%] | area under dose-response curve (HL-60; co-treatment: AZD3965 100 nM) | area under dose-response curve (HL-60; co-treatment: DMSO vehicle) | area under dose-response curve (HL-60; [4]) | area under dose-response curve (HL-60; [5])
1 | C[C@]12O[C@H](C[C@]1(O)CO)n1c3ccccc3c3c4c(c5c6ccccc6n2c5c31)CNC4=O [Lestaurtinib] | 87.2 | 66.8 | 73.2 | 93.9 | 8.53 | 56.2 | 18.6 | 19.5 | 5.6 | < 0 | 93.5 | 64.5 | 8.79 | 31.2 | 2.37 | 0.381 | 0.293 | 0.335 | 0.452
2 | O=c1c2ccccc2[se]n1-c1ccccc1 [Ebselen] |  |  |  |  |  |  |  |  |  |  |  |  |  |  |  | < 0.0301 | < 0.0301 | < 0.0301 | < 0.0301
3 | O=C(O)C(Cl)Cl [Dichloroacetate] |  |  |  |  |  |  |  |  |  |  |  |  |  |  |  | < 0.0301 | < 0.0301 | < 0.0301 | < 0.0301
4 | [N-]=[N+]=CC(=O)CC[C@H](N)C(=O)O [6-Diazo-5-oxo-L-norleucine] |  |  |  |  |  |  |  |  |  |  |  |  |  |  |  | < 0.0301 | < 0.0301 | < 0.0301 | < 0.0301
5 | Cc1ccc(S(=O)(=O)NC2c3ccccc3Oc3ccccc32)cc1 [AH-7614] |  |  |  |  |  |  |  |  |  |  |  |  |  |  |  | < 0.0301 | < 0.0301 | < 0.0301 | < 0.0301
6 | O=C1Nc2ccccc2/C1=C\NCCc1ccc(O)c(O)c1 [AC1NZZMF] |  |  |  |  |  |  |  |  |  |  |  |  |  |  |  | < 0.0301 | < 0.0301 | < 0.0301 | < 0.0301
7 | CCOc1ccc(Cc2cc([C@@H]3O[C@H](CO)[C@@H](O)[C@H](O)[C@H]3O)ccc2Cl)cc1 [Dapagliflozin] |  |  |  |  |  |  |  |  |  |  |  |  |  |  |  | < 0.0301 | < 0.0301 | < 0.0301 | < 0.0301
8 | C=CCc1ccc2c(c1O)C(=O)c1ccccc1C2=O [R162] |  |  |  |  |  |  |  |  |  |  |  |  |  |  |  | < 0.0301 | < 0.0301 | < 0.0301 | < 0.0301
9 | C[C@H]1O[C@@H](O[C@H]2[C@@H](O)C[C@H](O[C@H]3[C@@H](O)C[C@H](O[C@H]4CC[C@@]5(C)[C@H](CC[C@@H]6[C@@H]5C[C@@H](O)[C@]5(C)[C@@H](C7=CC(=O)OC7)CC[C@]65O)C4)O[C@@H]3C)O[C@@H]2C)C[C@H](O)[C@@H]1O [Digoxin] | 98 | 96 | 87 | 25.4 | 6.2 | 76 | 65.2 | 17.7 | 2.92 | 2.42 | 93 | 76.1 | 67.4 | 3.24 | 4.37 | 0.459 | 0.479 | 0.423 | 0.486
10 | CC(C)Cc1sc(N)nc1-c1ccc(P(=O)(O)O)o1 |  |  |  |  |  |  |  |  |  |  |  |  |  |  |  | < 0.0301 | < 0.0301 | < 0.0301 | < 0.0301
11 | O=C(O)c1nn(Cc2ccc(Cl)cc2Cl)c2ccccc12 [Lonidamine] |  |  |  |  |  |  |  |  |  |  |  |  |  |  |  | < 0.0301 | < 0.0301 | < 0.0301 | < 0.0301
12 | C1CCC(C(CC2CCCCN2)C2CCCCC2)CC1.O=C(O)/C=C\C(=O)O (centres undefined) [Perhexiline] |  |  |  |  |  |  |  |  |  |  |  |  |  |  |  | 0.133 | 0.125 | 0.16 | 0.198
13 | C#Cc1cnc(O)nc1O [Eniluracil] |  |  |  |  |  |  |  |  |  |  |  |  |  |  |  | < 0.0301 | < 0.0301 | < 0.0301 | < 0.0301
14 | COc1c(C)c2c(c(O)c1C/C=C(\C)CCC(=O)O)C(=O)OC2 [Mycophenolic acid] | 83.4 | 97.6 | 81.8 | 93.2 | > 100 | 28 | 63.2 | 52 | 50.4 | 75 | 88.4 | 95 | 76.3 | 89.2 | 32.9 | 0.0599 | < 0.0301 | 0.0302 | 0.0317
15 | Cc1noc2c1-c1ccccc1C(c1ccc(Cl)cc1)=N[C@H]2CC(N)=O [CPI-0610] | > 100 | 87.9 | > 100 | 87.9 | 69.7 | 83 | 24.2 | 88.3 | 6.03 | 11.5 | 82.5 | 65.6 | 58.1 | 6.43 | 7.38 | 0.21 | 0.157 | 0.168 | 0.289
16 | Nc1ncnc2c1ncn2[C@@H]1O[C@H](CSCC[C@H](N)C(=O)O)[C@@H](O)[C@H]1O [S-Adenosyl Homocysteine] |  |  |  |  |  |  |  |  |  |  |  |  |  |  |  | < 0.0301 | < 0.0301 | < 0.0301 | < 0.0301
17 | O=C(O)CC[C@H](NC(=O)c1ccc([N+](=O)[O-])cc1)C(=O)O [(S)-2-(4-Nitrobenzamido)pentanedioic acid] |  |  |  |  |  |  |  |  |  |  |  |  |  |  |  | < 0.0301 | < 0.0301 | < 0.0301 | < 0.0301
18 | NC(=O)c1ncn([C@@H]2O[C@H](CO)[C@@H](O)[C@H]2O)n1 [Ribavirin] |  |  |  |  |  |  |  |  |  |  |  |  |  |  |  | < 0.0301 | < 0.0301 | < 0.0301 | < 0.0301
19 | CCN(CC)CCN(Cc1ccc(-c2ccc(C(F)(F)F)cc2)cc1)C(=O)Cn1c(SCc2ccc(F)cc2)nc(=O)c2c1CCC2 [Darapladib] | 80.4 | 90 | 72.6 | 79.3 | 0.0489 | 37.7 | 60.6 | 25.1 | 2.92 | < 0 | 73.2 | 84.2 | 67.9 | 83 | 0.925 | 0.144 | 0.14 | 0.167 | 0.134
20 | Oc1cc(Cl)ccc1Oc1ccc(Cl)cc1Cl [Triclosan] |  |  |  |  |  |  |  |  |  |  |  |  |  |  |  | < 0.0301 | < 0.0301 | < 0.0301 | < 0.0301
21 | CC12CCC(O)CC1CCC1C2CCC2(C)C(C3=CC(=O)OC3)CCC12O (centres undefined) [Digitoxigenin] | 99.7 | 92.2 | 93.7 | 39.5 | 11.2 | 79 | 54.7 | 13 | 5.35 | 4.43 | 89.8 | 81.8 | 81.6 | 5.88 | 1.81 | 0.372 | 0.376 | 0.386 | 0.374
